Experimental data as given in paper PMC11241255 (International Journal of Molecular Sciences, 2024).

How the values were obtained:
Aβ1–42 [1] = target: T1, Aβ1–42 (Homo sapiens, UniProt P05067); assay: Anti-Aβ1–42 fibrilization, ThT assay; format: biochemical; details: samples 500 μg/mL; 37 °C 24 h
T1 construct: Aβ1–42 for MDS (GenicBio Inc., Shanghai, China); purchased GenicBio Inc
Method: The anti-Aβ1–42 fibrilization activity of the extracts/bioactives was monitored using a ThT assay. The samples were incubated in the presence/absence of Aβ1–42 at 37 °C for 24 h. The samples were incubated with 100 μM ThT at 37 °C for 15 min. The fluorescence was monitored at Ex 450 nm/Ems 490 nm (Synergy-H1 BioTek, Agilent, Santa Clara, CA, USA). For the control, phenol red (50 μM) was used. The Aβ1–42 aggregation inhibition was calculated as follows:Percent Inhibition (%) = [(1 − Fi/Fc) × 100] where Fi and Fc are the fluorescence intensity with and without the inhibitors, respectively.

[2] = system: H2O2-induced neuroblastoma SH-SY5Y cells; assay: Neuroprotection assay against H2O2-induced oxidative stress (WST-8); format: cell-based, Human; details: Homo sapiens, SH-SY5Y; 30 µg/mL; 12 h pre-treatment, 1 h H2O2 100 µM; read-out: % cell viability, H2O2-induced SH-SY5Y
Method: (§1) Human neuroblastoma SH-SY5Y cells (ATCC CRL-2266, Manassas, VA, USA) were maintained in Dulbecco’s modified Eagle’s medium (DMEM, Gibco) supplemented with 10% fetal bovine serum (FBS), 1% kanamycin, and 1% penicillin (Thermo Fisher Scientific, Waltham, MA, USA) at 37 °C with 5% CO2, and a 95% humidified atmosphere in the incubator. The experiments were executed at 80–90% cell confluency.
The neuroprotective effect of extracts and phytocompounds on H2O2-induced oxidative stress in SH-SY5Y by a previously described method. The cells (1 × 10^4 cells/well) were seeded in a 96-well sterile plate. After stabilization, the cells were pre-treated with the extracts and phytocompounds for 24 h. The extracts and phytocompounds were removed and treated with H2O2 (100 μM) for 6 h. A solvent control, H2O2 alone, and extract alone treatments were also included. After incubation, the % cell viability was measured using WST-8 reagent in triplicate experiments.

[3] = system: SH-SY5Y neuroblastoma cell line; assay: Cell viability / cytotoxicity assay (WST-8); format: cell-based, Human
Method: as §1
The cells were seeded (1 × 10^4 cells/well) in 96-well sterile plates and pre-treated with various extract concentrations (1, 10, 30 µg/mL) for 24 h. The extracts and phytocompounds were removed and incubated for 2 h with 10% WST-8 reagent (Roche, Grenzach-Wyhlen, Germany) as described previously. The absorbance was determined at 450 nm in a multi-plate reader (Synergy-H1 BioTek, Agilent, USA). The percent cytotoxicity was calculated as:Cytotoxicity % = (Ac − At)/(Ac) × 100 where Ac = absorbance of the control cells, At = absorbance of the treated cells.
The plot of percent cytotoxicity versus sample concentration was used to calculate the extract concentration that killed 50% of the cells (IC50).

[4] = system: AChE (bovine erythrocyte); parameters: method as in doi:10.1021/jf960398b; details: cited from earlier work
rodent models = details: cited from earlier work
SH-SY5Y cells lysate = assay: Malondialdehyde (MDA) in cell lysate (TBA:TCA); format: cell-based, Human; details: 24 h pre-treatment, 6 h H2O2 100 μM
Method: as §1
The cells (5 × 10^4 cells/well) were seeded in a 6-well sterile plate and incubated for 18–24 h. After stabilization, cells were pre-treated with the extracts and phytocompounds for 24 h before 6 h incubation with H2O2 (100 μM). The culture media was removed, and the cells were washed with cold PBS (1X). The cells were placed on ice and incubated with pre-chilled RIPA buffer for 10 min. Transfer the lysate in microfuge tubes and centrifuge (Labogene 1730R, BMS, Paju-si, Republic of Korea) for 10 min at 20,000× g, 4 °C. The supernatant was collected and stored at −80 °C.
MDA levels were measured using TBA: TCA reagent as described previously. In the reaction, MDA reacts with two molecules of thiobarbituric acid (TBA) to give a pink pigment that absorbs at 532 nm. The standard curve of MDA (1–100 μM) was used to calculate lipid peroxidation in the lysate.

[5] = system: H2O2-induced ROS production in SH-SY5Y cells; assay: Intracellular ROS measurement (H2DCFDA); format: cell-based, Human; details: 12 h pre-treatment, H2O2 100 µM 2 h, H2O2 alone 156.96 ± 5.07%
Method: as §1
The cells (1 × 10^4 cells/well) were seeded in a 96-well sterile plate, after which they were pre-treated with the extract for 12 h. […] The fluorescence intensity (Ex 495 nm, Ems 520 nm) was measured by a microplate reader (Synergy-H1 BioTek, Agilent, USA). The ROS was calculated as a percentage of the untreated control cells (100%) in triplicate measurements.

[6] = cited from earlier work
[7] = Ferric reducing antioxidant potential (FRAP) assay; details: 1 mg/mL
Method: FRAP assay was used to assess the […] of the extracts and phytocompounds with slight modification in a previously reported method. For the assay, the extract (1 mg/mL) was incubated with 200 μL of FRAP reagent, and the reduction of ferric tripyridyltriazine was monitored at 593 nm (Multimode reader, Synergy-H1 BioTek, Agilent, USA). Ascorbic acid (2 μg/mL) was used as a positive control. FRAP values of the extracts and phytocompounds were calculated from the standard curve of FeSO4 (15–250 μM) and expressed as μM Fe^2+/g.

Aβ1–42 [8] = target: T1, Aβ1–42; assay: Anti-Aβ1–42 oligomerization, multimeric detection system (MDS); format: biochemical; details: vs negative control (Buffer + Aβ)
Method: The anti-Aβ1–42 oligomerization and fibrilization activity of the extracts/bioactives were measured by Multiple Detection System (MDS) and ThT assay, respectively. Briefly, the extracts and phytocompounds were incubated with Aβ1–42 at RT for different time points (0 h, 2 h, and 4 h). The samples were incubated on an anti-β-amyloid pre-coated plate for 1 h at RT. An HRP-conjugated W0–2 monoclonal antibody was added, and the plate was kept at RT for 30 min. Later, TMB was added, and the plate was incubated for 15 min at RT. The absorbance was read at 450 nm using a microplate reader (Victor3, PerkinElmer, Shelton, CT, USA)

AChE = details: cited from earlier work

T1 sequence (P05067 672-713): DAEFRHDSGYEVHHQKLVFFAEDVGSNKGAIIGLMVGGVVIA

SMILES: C=C(C)[C@H]1CC=C(C)C(=O)C1 [carvone, D-carvone]
- Aβ fibrilization inhibition (ThT) (Aβ1–42 [1]): 42.37 ± 0.76%
- viability at 30 µg/mL [2]: 70.5 ± 1.67%
- Cytotoxicity (cell viability) in SH-SY5Y [3]: No significant difference
- AChE IC50 [4]: 277.9 µg/mL
- IC50 [4]: 1850 µM
- type of AChE inhibition [4]: competitive inhibitor
- LD50 (rodent models): 1640 mg/kg
- MDA level (SH-SY5Y cells lysate; 0.1 µg/mL): 1.71 µM
- MDA level (SH-SY5Y cells lysate; 1 and 10 µg/mL): ~ 1.33 µM
- ROS level (% of untreated cells) ([5]; 1 µg/mL): 122.82 ± 6.63%
- ROS level (% of untreated cells) ([5]; 10 µg/mL): 110.70 ± 4.90%
- ROS level (% of untreated cells) ([5]; 30 µg/mL): 107.11 ± 8.34%
- BBB permeability [6]: can cross BBB
- FRAP value [7]: 43.25 ± 2.50 µM Fe^2+/g
- Aβ oligomerization reduction (relative amount of Aβ oligomers) (Aβ1–42 [8]; 2 h incubation): statistically significant
- Aβ oligomerization reduction (relative amount of Aβ oligomers) (Aβ1–42 [8]; 4 h incubation): statistically significant
- AChE inhibition (AChE; at 1 mg/mL): 23.6%
- AChE IC50 (AChE): 835.2 µg/mL
- IC50 (AChE): 5560 µM
- Ki (AChE; ref Grundy et al. 51): 680 µM
